Test results from patent US10611731B2, “5-methyl-6-phenyl-4,5-dihydro-2H-pyridazin-3-one derivative” (OTSUKA PHARMACEUTICAL CO., LTD., priority 2016, dated 2020).
pIC50: −log10 of the molar value.

Experiments:
[1] = test system: human childhood brain tumor cell lines (PFSK-1); assay: Growth inhibitory activity against PFSK-1 cells (WST-8, Cell Counting Kit-8); format: cell-based; details: Homo sapiens, 72 h, 3 days incubation with test compound, WST-8 OD 450/630 nm, read-out: IC50 (concentration inhibiting 50% of the cell growth)
Procedure, shortened: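 Cells seeded in RPMI 1640 with 10% FBS and preincubated 24 h at 37 °C, 5% CO2, then exposed to compound for 3 days. IC50 (nM) from growth relative to untreated control.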

melting point [°C]	pIC50 [1]	Structure (SMILES)
157.4 to 157.6	–	Cc1cc(C2=NNC(=O)CC2C)cc(Cl)c1OCCO (centres unmarked) [Example 4, 6-[3-Chloro-4-(2-hydroxyethoxy)-5-methylphenyl]-5-methyl-4,5-dihydro-2H-pyridazin-3-one]
129.7 to 132.6	8.54	Cc1cc(C2=NNC(=O)CC2C)cc(Cl)c1OCCCO (centres unmarked) [Example 17, 6-[3-Chloro-4-(3-hydroxypropoxy)-5-methylphenyl]-5-methyl-4,5-dihydro-2H-pyridazin-3-one]
153 to 156.6	8.40	CC1CC(=O)NN=C1c1cc(Cl)c(OCCCO)c(Br)c1 (centres unmarked) [Example 18, 6-[3-Bromo-5-chloro-4-(3-hydroxypropoxy)phenyl]-5-methyl-4,5-dihydro-2H-pyridazin-3-one]
225 to 225.3	8.28	CC1CC(=O)NN=C1c1ccc(OCCCO)c(Cl)c1O (centres unmarked) [Example 77, 6-[3-Chloro-2-hydroxy-4-(3-hydroxypropoxy)phenyl]-5-methyl-4,5-dihydro-2H-pyridazin-3-one]
199.1 to 200.1	8.18	Cc1c(OCCCO)ccc(C2=NNC(=O)CC2C)c1O (centres unmarked) [Example 78, 6-[2-Hydroxy-4-(3-hydroxypropoxy)-3-methylphenyl]-5-methyl-4,5-dihydro-2H-pyridazin-3-one]
–	8.35	C[C@@H]1CC(=O)NN=C1c1ccc(OC/C=C\CO)c(Cl)c1O [Example 183, (5R)-(−)-6-{3-chloro-2-hydroxy-4-[(Z)-4-hydroxy-2-butenyloxy]phenyl}-5-methyl-4,5-dihydro-2H-pyridazin-3-one]
–	8.66	CC1CC(=O)NN=C1c1ccc(OCC(C)(C)O)c(C(F)(F)F)c1F (centres unmarked) [Example 184, 6-[2-fluoro-4-(2-hydroxy-2-methylpropoxy)-3-(trifluromethyl)phenyl]-5-methyl-4,5-dihydro-2H-pyridazin-3-one]

Structure (SMILES)	melting point [°C]	pIC50 [1]
Cc1c(OCCCCO)ccc(C2=NNC(=O)CC2C)c1O (centres unmarked) [Example 87, 6-[2-Hydroxy-4-(4-hydroxybutoxy)-3-methylphenyl]-5-methyl-4,5-dihydro-2H-pyridazin-3-one]	178.7 to 179.9	8.01
CC1CC(=O)NN=C1c1ccc(OCCCCO)c(Cl)c1O (centres unmarked) [Example 88, 6-[3-Chloro-2-hydroxy-4-(4-hydroxybutoxy)phenyl]-5-methyl-4,5-dihydro-2H-pyridazin-3-one]	204.5 to 204.9	8.02
C=Cc1c(OCCCCO)ccc(C2=NNC(=O)CC2C)c1F (centres unmarked) [Example 89, 6-[2-Fluoro-4-(4-hydroxybutoxy)-3-vinylphenyl]-5-methyl-4,5-dihydro-2H-pyridazin-3-one]	106.4 to 107.4	8.31
